Legend:
Format in all cases: nucleic-acid assay
Quadruplex DNA [1] = experiment: Binding affinity to human telomeric IKF1 G4 quadruplex DNA assessed as change in melting temperature at 20 uM at pH 7.4 by FRET assay
i-motif DNA [2] = experiment: Binding affinity to human telomeric 1ELN i-motif DNA assessed as change in melting temperature at 20 uM at pH 7.4 by FRET assay
i-motif DNA [3] = experiment: Binding affinity to human telomeric 1ELN i-motif DNA assessed as change in melting temperature at 20 uM at pH 5.5 by FRET assay
Quadruplex DNA [4] = experiment: Binding affinity to human ILPR G4 quadruplex DNA assessed as change in melting temperature at 20 uM at pH 7.4 by FRET assay
i-motif DNA [5] = experiment: Binding affinity to human ILPR i-motif DNA assessed as change in melting temperature at 20 uM at pH 7.4 by FRET assay
i-motif DNA [6] = experiment: Binding affinity to human ILPR i-motif DNA assessed as change in melting temperature at 20 uM at pH 5.5 by FRET assay
dsDNA [7] = experiment: Binding affinity to human 1BNA double stranded DNA assessed as change in melting temperature at 20 uM at pH 7.4 by FRET assay
Quadruplex DNA [8] = experiment: Displacement of thiazole orange from human telomeric IKF1 G4 quadruplex DNA at 10 equiv. at pH 7.4 by fluorescent intercalator displacement assay
Quadruplex DNA [9] = experiment: Displacement of thiazole orange from human telomeric IKF1 G4 quadruplex DNA at 100 equiv. at pH 7.4 by fluorescent intercalator displacement assay
i-motif DNA [10] = experiment: Displacement of thiazole orange from human telomeric 1ELN i-motif DNA at 10 equiv. at pH 7.4 by fluorescent intercalator displacement assay
i-motif DNA [11] = experiment: Displacement of thiazole orange from human telomeric 1ELN i-motif DNA at 100 equiv. at pH 7.4 by fluorescent intercalator displacement assay
i-motif DNA [12] = experiment: Displacement of thiazole orange from human telomeric 1ELN i-motif DNA at 10 equiv. at pH 5.5 by fluorescent intercalator displacement assay
i-motif DNA [13] = experiment: Displacement of thiazole orange from human telomeric 1ELN i-motif DNA at 100 equiv. at pH 5.5 by fluorescent intercalator displacement assay
Quadruplex DNA [14] = experiment: Displacement of thiazole orange from human ILPR G4 quadruplex DNA at 10 equiv. at pH 7.4 by fluorescent intercalator displacement assay
Quadruplex DNA [15] = experiment: Displacement of thiazole orange from human ILPR G4 quadruplex DNA at 100 equiv. at pH 7.4 by fluorescent intercalator displacement assay
i-motif DNA [16] = experiment: Displacement of thiazole orange from human ILPR i-motif DNA at 10 equiv. at pH 7.4 by fluorescent intercalator displacement assay
i-motif DNA [17] = experiment: Displacement of thiazole orange from human ILPR i-motif DNA at 100 equiv. at pH 7.4 by fluorescent intercalator displacement assay
i-motif DNA [18] = experiment: Displacement of thiazole orange from human ILPR i-motif DNA at 10 equiv. at pH 5.5 by fluorescent intercalator displacement assay
i-motif DNA [19] = experiment: Displacement of thiazole orange from human ILPR i-motif DNA at 100 equiv. at pH 5.5 by fluorescent intercalator displacement assay
dsDNA [20] = experiment: Displacement of thiazole orange from human 1BNA double stranded DNA at 10 equiv. at pH 7.4 by fluorescent intercalator displacement assay
dsDNA [21] = experiment: Displacement of thiazole orange from human 1BNA double stranded DNA at 100 equiv. at pH 7.4 by fluorescent intercalator displacement assay
i-motif DNA [22] = experiment: Binding affinity to human telomeric i-motif DNA by SPR analysis
i-motif DNA [23] = experiment: Binding affinity to human c-Myc promoter i-motif DNA by SPR analysis
dsDNA [24] = experiment: Binding affinity to human double stranded DNA by SPR analysis

Compound | ΔTm (Quadruplex DNA [1]) [°C] | ΔTm (i-motif DNA [2]) [°C] | ΔTm (i-motif DNA [3]) [°C] | ΔTm (Quadruplex DNA [4]) [°C] | ΔTm (i-motif DNA [5]) [°C] | ΔTm (i-motif DNA [6]) [°C] | ΔTm (dsDNA [7]) [°C] | Activity (Quadruplex DNA [8]) [%] | Activity (Quadruplex DNA [9]) [%] | Activity (i-motif DNA [10]) [%] | Activity (i-motif DNA [11]) [%] | Activity (i-motif DNA [12]) [%] | Activity (i-motif DNA [13]) [%] | Activity (Quadruplex DNA [14]) [%] | Activity (Quadruplex DNA [15]) [%] | Activity (i-motif DNA [16]) [%] | Activity (i-motif DNA [17]) [%] | Activity (i-motif DNA [18]) [%] | Activity (i-motif DNA [19]) [%] | Activity (dsDNA [20]) [%] | other results
COC(=O)C1=CO[C@@H](O[C@@H]2O[C@H](CO)[C@@H](O)[C@H](O)[C@H]2O)[C@@H]2C(CO)=CC[C@H]12 | -6.1 | -1.8 | -0.5 | -2.9 | -1.8 | -0.1 | -3.5 | 23.1 | 25.7 | -32 | -84.1 | -9.5 | 32.3 | -6.7 | 1.8 | 21.2 | 31.8 | 7.2 | 27.9 | 8.5 | Activity (dsDNA [21]): 11.2%
NC[C@H]1O[C@H](O[C@H]2[C@H](O)[C@@H](O[C@H]3O[C@H](CO)[C@@H](O)[C@H](N)[C@H]3O)[C@H](N)C[C@@H]2N)[C@H](N)C[C@@H]1O [TOBRAMYCIN] |  |  |  |  |  |  |  |  |  |  |  |  |  |  |  |  |  |  |  |  | Kd (i-motif DNA [22]): 17 µM; Kd (i-motif DNA [23]): 13 µM; Kd (dsDNA [24]): 18 µM
O=C(O)C1=CO[C@@H](O[C@@H]2O[C@H](CO)[C@@H](O)[C@H](O)[C@H]2O)[C@@H]2C(CO)=CC[C@H]12 | -4.7 | -2.5 | -0.5 | -3.6 | -2.2 | -0.3 | -4.8 | 23 | 25.2 | 2.6 | -37.8 | -10.2 | 22.9 | 4.1 | 1.4 | 12.3 | 22 | -3.5 | 25.3 | 6.4 | Activity (dsDNA [21]): 9.6%
O=C(O)[C@H]1O[C@@H](Oc2cc3oc(-c4ccccc4)cc(=O)c3c(O)c2O)[C@H](O)[C@@H](O)[C@@H]1O | -1.8 | -3.9 | -0.4 | -3.8 | -2.6 | -0.3 | -2.5 | 24 | 46.3 | -3.8 | -91.2 | 12.2 | 36.5 | 4.9 | 17.7 | 23.9 | 38.5 | 9.5 | 35.3 | 8.2 | Activity (dsDNA [21]): 25.3%
O=c1c(-c2ccc(O)cc2)coc2cc(O[C@@H]3O[C@H](CO)[C@@H](O)[C@H](O)[C@H]3O)ccc12 | -2.4 | 0 | -0.3 | -1.8 | -2.4 | -0.1 | -2.3 | 20.9 | 29 | 14.9 | -154 | -4.2 | 20.3 | 2.6 | 2.4 | 20 | 28.9 | -2.5 | 22.6 | 7 | Activity (dsDNA [21]): 10.9%
OC[C@H]1O[C@@H](O[C@@H]2[C@@H](CO)O[C@](O)(CO)[C@H]2O)[C@H](O)[C@@H](O)[C@H]1O | -4 | -3.7 | -0.4 | -4.6 | -2.7 | -0.3 | -2.7 | 21.4 | 26.1 | -54 | -68 | -28.4 | 20.2 | 0.9 | 0.4 | 26.7 | 34.7 | -5 | 23.1 | 4.3 | Activity (dsDNA [21]): 9%
O=c1c(-c2ccc(O)cc2)coc2cc(O[C@@H]3O[C@H](CO)[C@@H](O)[C@H](O)[C@H]3O)cc(O)c12 | -6.6 | -5.4 | -0.8 | -4.7 | -2.4 | -0.4 | -3 | 20.8 | 28.7 | 16.2 | -288 | 0.6 | 19.3 | 1.6 | 6.4 | 24.2 | 31.8 | 5.3 | 23.5 | 6.2 | Activity (dsDNA [21]): 14.5%
O=c1ccc2cc(O[C@@H]3O[C@H](CO)[C@@H](O)[C@H](O)[C@H]3O)c(O)cc2o1 | -7.6 | -6.4 | -0.4 | -2.4 | -2.6 | 0 | -2.7 |  |  |  |  |  |  |  |  |  |  |  |  |  | 

— ChEMBL document CHEMBL5104132, “Identification of sugar-containing natural products that interact with i-motif DNA” (Bioorg Med Chem Lett, 2022)
